Measurements published in PubChem BioAssay AID2027 (NMMLSC, 2009).

Target: Ras-related C3 botulinum toxin substrate 1 (Homo sapiens) (UniProt P63000)
Test: wildtype Rac1 GTP binding inhibitors, SAR follow-up, biochemical, oxadiazole analogs, multiplex bead flow cytometry (AID 2027)
Settings: GST-Rac1 beads, Bodipy-FL-GTP binding, Ki calculated from EC50

Row | Structure (SMILES) | Ki [nM]
1 | Cc1ccc(C)c(N2CCN(C(=O)CCc3nc(-c4ccc(N(C)C)cc4)no3)CC2)c1 | 260
2 | Cc1ccc(C)c(N2CCN(C(=O)CCc3nc(-c4ccc(C(F)(F)F)cc4)no3)CC2)c1 | 200
3 | Cc1ccc(C)c(N2CCN(C(=O)CCc3nc(-c4cccc(C(F)(F)F)c4)no3)CC2)c1 | 230
4 | COc1ccc(-c2noc(CCC(=O)N3CCN(c4ccc(OC)cc4)CC3)n2)cc1 | 50
5 | COc1ccc(-c2noc(CCC(=O)N3CCN(c4cc(C)ccc4C)CC3)n2)cc1 | 470
6 | COc1ccc(-c2noc(CCC(=O)N3CCN(c4ccccc4F)CC3)n2)cc1 | 100
7 | Cc1ccc(C)c(N2CCN(C(=O)CCc3nc(-c4cccc(Br)c4)no3)CC2)c1 | 160
8 | Cc1ccc(C)c(N2CCN(C(=O)CCc3nc(-c4ccccc4F)no3)CC2)c1 | 170
9 | COc1ccc(-c2noc(CCCCC(=O)N3CCN(c4cc(C)ccc4C)CC3)n2)cc1 | 1960
10 | COc1ccc(-c2noc(CCC(=O)N3CCN(c4ccccc4OC)CC3)n2)cc1 | 210
11 | COc1ccc(-c2noc(CCC(=O)N3CCN(c4cccc(C)c4C)CC3)n2)cc1 | 120
12 | COc1ccc(-c2noc(CC(=O)N3CCN(c4cc(C)ccc4C)CC3)n2)cc1 | 700
13 | COc1ccc(-c2noc(CCC(=O)N3CCN(c4ccc(C)cc4)CC3)n2)cc1 | 250
14 | COc1ccc(-c2noc(CCC(=O)N3CCC(c4cc(C)ccc4C)CC3)n2)cc1 | 110
15 | Cc1ccc(C)c(N2CCN(C(=O)CCc3nc(-c4ccccc4C)no3)CC2)c1 | 160
16 | Cc1ccc(C)c(N2CCN(C(=O)CCc3nc(-c4cccc(F)c4)no3)CC2)c1 | 140
17 | Cc1cccc(-c2noc(CCC(=O)N3CCN(c4cc(C)ccc4C)CC3)n2)c1 | 110
18 | Cc1ccc(C)c(N2CCN(C(=O)CCc3nc(-c4ccccc4C(F)(F)F)no3)CC2)c1 | 200

Row | Structure (SMILES) | Ki [nM]
19 | COc1ccc(-c2noc(CCC(=O)N3CCN(c4ccccc4C(F)(F)F)CC3)n2)cc1 | 160
20 | COc1ccc(-c2noc(CCC(=O)N3CCN(c4ccccc4C)CC3)n2)cc1 | 130
21 | Cc1ccc(C)c(N2CCN(C(=O)CCc3nc(-c4ccccc4)no3)CC2)c1 | 150
22 | Cc1ccc(C)c(N2CCN(C(=O)CCc3nc(-c4ccc(Br)cc4)no3)CC2)c1 | 280
23 | COc1ccc(-c2coc(CCC(=O)N3CCN(c4cc(C)ccc4C)CC3)n2)cc1 | 210
24 | Cc1ccc(C)c(N2CCN(C(=O)CCc3nc(-c4cccc(Cl)c4)no3)CC2)c1 | 460
25 | Cc1ccc(C)c(N2CCN(C(=O)CCc3nc(-c4ccccc4Cl)no3)CC2)c1 | 110
26 | Cc1ccc(-c2noc(CCC(=O)N3CCN(c4cc(C)ccc4C)CC3)n2)cc1 | 300
27 | COc1ccc(-c2noc(CCC(=O)N3CCN(c4ccccc4Br)CC3)n2)cc1 | 160
28 | Cc1ccc(C)c(N2CCN(C(=O)CCc3nc(-c4ccc(F)cc4)no3)CC2)c1 | 120
29 | COc1ccc(-c2noc(CCC(=O)N3CCN(c4ccccc4Cl)CC3)n2)cc1 | 310
30 | COc1ccc(-c2noc(CCC(=O)N3CCN(c4ccc(Br)cc4)CC3)n2)cc1 | 20
31 | COc1ccc(-c2noc(CCC(=O)N3CCN(c4ccc(F)cc4)CC3)n2)cc1 | 150
32 | Cc1ccc(C)c(N2CCN(C(=O)CCc3nc(-c4ccc(Cl)cc4)no3)CC2)c1 | 170
33 | COc1ccc(-c2noc(CCCC(=O)N3CCN(c4cc(C)ccc4C)CC3)n2)cc1 | 350
34 | COc1ccccc1-c1noc(CCC(=O)N2CCN(c3cc(C)ccc3C)CC2)n1 | 1410
35 | COc1cccc(-c2noc(CCC(=O)N3CCN(c4cc(C)ccc4C)CC3)n2)c1 | 570
36 | Cc1ccc(C)c(N2CCN(C(=O)CCc3nc(-c4ccccc4Br)no3)CC2)c1 | 160
